The numbers were not newly measured in US20230404078A1, “HERBICIDAL COMBINATIONS” (priority 2020, published 2023), which cites them from elsewhere.

In one series the test system is broadleaf weeds. The settings on record: Clethodim itself.
The next series has as its system wheat. To be noted: in vivo.

In the case of `CCSC(C)CC1CC(=O)C(/C(CC)=N/OC/C=C/Cl)=C(O)C1` (stereo not drawn) [Clethodim, 2-[1-[[[(2£)-3-chloro-2-propen-l-yl]oxy]imino]propyl]-5-[2-(ethylthio)propyl]-3-hydroxy-2-cyclohexen-1-one], the “efficacy against broadleaf weeds” value in the series with broadleaf weeds is “no efficacy”.

Turning to `COc1cc(OC)n2nc(NS(=O)(=O)c3c(C(F)(F)F)ccnc3OC)nc2n1` [Pyroxsulam], in the series with wheat, the “injury in the wheat crop” value was “greater than 10%” and the “visual injury in wheat” value is on record as “up to 10%”.
